The values that follow come from publication PMC11372837, “Albumin-Mediated Drug Uptake by Organic Anion Transporter 1/3 Is Real: Implications for the Prediction of Active Renal Secretion Clearance” (Molecular Pharmaceutics, 2024).

In one series the test system is OAT1/3. The series can be described thus: Bottom-up IVIVE of CLint,sec, CLsec and CLr, relative expression factor (REF) approach. The note with it: REF approach. On the set-up: species or system human. The source says:
The relative expression and relative activity factor (REF and RAF) are unitless scalers that account for in vivo versus in vitro differences in the abundance and activity of OAT1/3 and are used for IVIVE of in vitro CLint,u,active. REF was derived from the OAT1/3 expression ratio between the in vivo human kidney cortex to the in vitro ciPTEC-OAT1/3, as shown in eq 7: [drawing 8] 7 Absolute abundance of OAT1 and OAT3 in the human kidney cortex was previously quantified by our group using the filter-aided sample preparation protocol and global proteomic analysis.[44]

For series [1], the system named is OAT1. Nature of the series: Observed in vivo (clinical) renal, secretion and intrinsic secretion clearance. The note with it: human, plasma.
Assay in series [2]: as above
Particulars: in vivo.

The target of another series is human serum albumin (Homo sapiens, UniProt P02768). The series can be described thus: Extent of albumin binding: high throughput equilibrium dialysis (fu,inc, Kd). The class given is in vitro ADME. The note with it: equilibrium dialysis 37 °C 6 h, mean ± SD; for fraction unbound at 6 h: human. The method, then: Briefly, cellulose membranes with MWCO of 12–14 kDa were submerged in distilled water for 1 h, followed by 20% ethanol/distilled water for at least 20 min. Prior to the start of the experiment, cellulose membranes were rinsed in distilled water and submerged in blank DPBS for 15 min. The HTDialysis device was assembled according to the manufacturer’s instructions (https://www.htdialysis.com). Blank DPBS was first added to the receiver side of the dialysis membranes, followed by DPBS spiked with HSA and the OAT1/3 substrate to the donor side. Each HSA concentration was tested in triplicates. The HTDialysis device was sealed with an adhesive sealing film and incubated in a water bath at 37 °C for 6 h shaken at 150 rpm. Once the assay was completed, aliquots from both receiver and donor wells were transferred to a 96-well plate and stored at −80 °C until analysis. DPBS spiked with the OAT1/3 substrate from both before and after incubation was stored to assess the recovery and stability of the samples. To prepare the sample for analysis, donor and receiver samples were matrix-matched and quenched with ice-cold acetonitrile containing an internal standard (0.5 μM gemfibrozil or 0.05 μM buspirone).
Sequence of human serum albumin (P02768 25-609): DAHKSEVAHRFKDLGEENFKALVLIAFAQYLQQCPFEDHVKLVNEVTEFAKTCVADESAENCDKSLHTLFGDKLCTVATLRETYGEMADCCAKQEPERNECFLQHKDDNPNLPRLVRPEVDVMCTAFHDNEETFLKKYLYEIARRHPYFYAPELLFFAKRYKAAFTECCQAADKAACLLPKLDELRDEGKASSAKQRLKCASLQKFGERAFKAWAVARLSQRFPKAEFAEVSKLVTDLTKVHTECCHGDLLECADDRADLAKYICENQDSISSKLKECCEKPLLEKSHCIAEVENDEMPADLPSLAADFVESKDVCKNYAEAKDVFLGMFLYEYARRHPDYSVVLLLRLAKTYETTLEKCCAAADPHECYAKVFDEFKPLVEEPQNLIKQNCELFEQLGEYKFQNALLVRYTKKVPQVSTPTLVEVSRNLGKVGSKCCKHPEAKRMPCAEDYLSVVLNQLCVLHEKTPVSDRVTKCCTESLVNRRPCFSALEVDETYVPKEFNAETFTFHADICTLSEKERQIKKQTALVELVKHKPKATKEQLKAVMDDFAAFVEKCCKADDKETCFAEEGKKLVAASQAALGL
A general note: In equilibrium dialysis free small molecules cross a membrane that holds back macromolecules.

The conditions of series [3]: in vivo, plasma renal clearance, clinical data; cited from earlier work.
Series [4] addresses T1, OAT1 (Homo sapiens, UniProt Q4U2R8).
T1 sequence (Q4U2R8 1-563): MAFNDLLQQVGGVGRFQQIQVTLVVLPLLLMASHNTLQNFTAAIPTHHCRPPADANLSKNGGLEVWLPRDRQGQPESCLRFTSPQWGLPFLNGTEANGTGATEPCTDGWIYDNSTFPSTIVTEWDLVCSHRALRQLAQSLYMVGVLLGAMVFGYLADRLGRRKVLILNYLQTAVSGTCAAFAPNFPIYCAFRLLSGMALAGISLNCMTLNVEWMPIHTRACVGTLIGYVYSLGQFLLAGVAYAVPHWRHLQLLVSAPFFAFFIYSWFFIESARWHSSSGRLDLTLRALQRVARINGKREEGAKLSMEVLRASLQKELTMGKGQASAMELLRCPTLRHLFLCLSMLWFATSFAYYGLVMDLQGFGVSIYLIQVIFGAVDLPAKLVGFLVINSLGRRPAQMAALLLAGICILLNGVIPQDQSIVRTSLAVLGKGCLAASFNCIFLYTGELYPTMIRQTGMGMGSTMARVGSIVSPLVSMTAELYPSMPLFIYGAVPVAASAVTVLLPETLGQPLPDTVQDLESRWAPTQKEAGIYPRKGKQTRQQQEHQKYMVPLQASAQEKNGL
Nature of the series: OAT1 uptake study in ciPTEC-OAT1.

In series [5] the target is T2, OAT3 (Homo sapiens, UniProt Q8TCC7).
T2 sequence (Q8TCC7 1-542): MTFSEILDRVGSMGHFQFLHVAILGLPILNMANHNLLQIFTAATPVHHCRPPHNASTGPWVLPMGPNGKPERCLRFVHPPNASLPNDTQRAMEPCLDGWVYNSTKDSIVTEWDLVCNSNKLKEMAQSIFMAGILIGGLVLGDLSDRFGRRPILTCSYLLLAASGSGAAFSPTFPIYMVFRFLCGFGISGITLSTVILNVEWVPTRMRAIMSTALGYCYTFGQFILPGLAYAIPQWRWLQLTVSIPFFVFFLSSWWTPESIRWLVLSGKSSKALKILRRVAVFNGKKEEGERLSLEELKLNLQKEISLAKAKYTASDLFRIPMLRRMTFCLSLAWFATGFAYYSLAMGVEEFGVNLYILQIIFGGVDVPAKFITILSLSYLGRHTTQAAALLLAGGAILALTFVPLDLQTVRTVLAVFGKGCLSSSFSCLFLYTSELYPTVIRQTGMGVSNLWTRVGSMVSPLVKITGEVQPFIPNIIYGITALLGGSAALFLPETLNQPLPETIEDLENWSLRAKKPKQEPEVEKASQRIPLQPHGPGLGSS
The series can be described thus: OAT3 uptake study in ciPTEC-OAT3.

Series [6] deals with OAT3. The series can be described thus: clinical. The note with it: human.
For series [7] the following is noted: human, in vivo.
Setting [8] is: 1% human serum albumin in DPBS, 1% HSA, read-out: fu,inc (1%).
Setting [9] is: 4% HSA in DPBS, 4% HSA, read-out: fu,inc (4%).
Where [10] appears, read: eq 4 fitted to CLint,u, mean ± S.D.

“Also recorded” adds a separate entry of the source. Like-named read-outs stand apart in the source and are kept apart here. Bounds are passed on as bounds.

For `Nc1ncnc2c1ncn2CCOCP(=O)(O)O` [adefovir], in the series on OAT1/3, the “CLint,sec Predicted 0% HSA” value is reported as 42.9 L/h, the “CLint,sec Predicted 1% HSA” value is given as 57.8 L/h, the “CLint,sec Predicted 4% HSA” value is listed as 44.7 L/h and the “CLsec Predicted 0% HSA” value was 21.3 L/h. In addition, in the series with OAT1/3, the “CLsec Predicted 1% HSA” value is recorded as 25.1 L/h and the “CLsec Predicted 4% HSA” value is listed as 21.8 L/h. In the series with OAT1 [1], this compound returned a microsomal CLint of 35.2 µL/min/mg. Moreover, the “CLint,sec Observed” value in series [2] (back-calculated from clinical data) is listed as 10.8 L/h. In series [2] (plasma secretion clearance), the “CLsec Observed” value amounted to 7.82 L/h. In addition, the “fu,inc (4%)” value at human serum albumin (4% HSA) amounted to 0.977 ± 0.062. Further, the fraction unbound at 6 h at human serum albumin (setting [8]) worked out at 0.999 ± 0.019. For the same compound, the fraction unbound at 6 h on human serum albumin (setting [9]) is over 0.95. For the same compound, in series [3], the “CLr Observed” value is listed as 14.2 L/h. Further, the “Effect of HSA on OAT1 uptake / CLint,u,active” value on OAT1 [4] (1 and 4% HSA vs control) is reported as “no effect; also recorded: did not show any significant change; also recorded: absence of any change”. Further, on OAT1 [4] (setting [10]), the “Vb,max OAT1, Active and Passive Uptake” value was -1083 ± 194000 pmol/min/mg. For the same compound, on OAT1 [4] (eq 4 fitted to CLint,u,active, Kd,m fixed from OAT3 data, mean ± S.D.), the “Vb,max OAT1, Active Uptake Only” value turned out to be 3055 ± 188000 pmol/min/mg. In addition, the “OAT3 substrate status (uptake in ciPTEC-OAT3)” value on OAT3 [5] (control vs probenecid 300 μM) is listed as “not an OAT3 substrate”.
In the case of `CCC(CC)O[C@@H]1C=C(C(=O)O)C[C@H](N)[C@H]1NC(C)=O` [oseltamivir carboxylate], the “fu,inc (4%)” value on human serum albumin (4% HSA) turned out to be 0.983 ± 0.018. The fraction unbound at 6 h on human serum albumin (setting [8]) worked out at 0.973 ± 0.039. Also, the fraction unbound at 6 h on human serum albumin (setting [9]) is over 0.95. Also, the “CLr Observed” value in [3] is 15.6 L/h. Also, in the series on OAT3 [6], the microsomal CLint was 36.2 µL/min/mg. Also, in [7], the “CLint,sec Observed” value is on record as 11.7 L/h and the “CLsec Observed” value was 8.29 L/h. At OAT3 [5] (1 and 4% HSA vs control), the “Effect of HSA on OAT3 uptake / CLint,u,active” value is recorded as “no effect; also recorded: did not show any significant change; also recorded: absence of any change”. Also, on OAT3 [5] (setting [10]), the “Vb,max OAT3, Active and Passive Uptake” value is recorded as -1150 ± 2660 pmol/min/mg. In addition, at OAT3 [5] (eq 4 fitted to CLint,u,active, mean ± S.D.), the “Vb,max OAT3, Active Uptake Only” value is -1120 ± 2640 pmol/min/mg.

Broadly, the microsomal CLint is the rate of metabolic loss divided by the concentration.
